Reference: patent publication US20190075787A1, “COMPOSITIONS AND METHODS FOR CROP DEFENSE” (AdvanSix Resins & Chemicals LLC, priority 2017, published 2019)

Key:
[1] = Herbicide comparative solubility: saflufenacil dissolved in each solvent; format: physicochemical; settings: room temperature; vials of 20, 30, 40 and 50 wt. % saflufenacil
Description: (§1) The solubility of the herbicide saflufenacil was determined for thirteen solvents. Three of the solvents were caprolactam-derived solvents in accordance with this disclosure. The remaining ten were comparative solvents. The solubility of saflufenacil was evaluated for each solvent by preparing four, 2 ml vials containing 20 wt. %, 30 wt. %, 40 wt. % and 50 wt. % of saflufenacil. To prepare the 20 wt. % vial, 0.040 g of saflufenacil was added to 0.160 ml of solvent. To prepare the 30 wt. % vial, 0.060 g of saflufenacil was added to 0.140 ml of solvent. To prepare the 40 wt. % vial, […] of saflufenacil was added to 0.120 ml of solvent. To prepare the 50 wt. % vial, 0.100 g of saflufenacil was added to 0.100 ml of solvent. The vials were capped and swirled at room temperature until no change in solubility was observed. […] Solvents 1-3 are in accordance with the present disclosure. Solvents 4-13 are comparative solvents.

[2] = Insecticide comparative solubility: bifenthrin dissolved in each solvent; format: physicochemical; settings: room temperature; vials of 20, 30, 40 and 50 wt. % bifenthrin
[3] = Fungicide comparative solubility: tebuconazole dissolved in each solvent; format: physicochemical; settings: room temperature; vials of 20, 30, 40 and 50 wt. % tebuconazole
Description: as §1, with “observed. Test samples including the fungicide tebuconazole were prepared as described above for Example 1 for saflufenacil.” for “observed.”, “As in Table 1 above, solvents” for “Solvents”, “disclosure and solvents” for “disclosure. Solvents”

[4] = general statement, no test described; cited from earlier work
[5] = general statement, no test described; cited from earlier work; remark: listed apart in the source
[6] = Hansen Solubility Parameters of solvents; format: physicochemical
Excerpt: As is known in the art, Hansen Solubility Parameters can be used to predict the effectiveness of a solvent. […] Thus, one skilled in the art would not expect the caprolactam-derived solvents to be as effective as NMP and other commonly used solvents.

SMILES | maximum weight percentage of saflufenacil dissolved in each solvent [1] | maximum weight percentage of bifenthrin dissolved in each solvent [2] | maximum weight percentage of tebuconazole dissolved in each solvent [3] | further results
N#CCCN1CCCCCC1=O [Solvent 13] | <20% | <20% | <20% | 
CCCCN1CCCC1=O [Solvent 5] | 30% | 50% | 40% | 
CCCCN1CCCCCC1=O [Solvent 3] | 20% | 40% | 40% | 
O=C1CCCCC1 [Solvent 9] | <20% | 50% | 40% | 
CN1CCCCCC1=O [Solvent 1] | 40% | 40% | 50% | 
CN1CCCC1=O [Solvent 4, N-methyl-2-pyrrolidone] |  |  |  | reproductive toxin [4]: has been found to be a reproductive toxin
CCN1CCCCCC1=O [Solvent 2] | 30% | 50% | 50% | 
O=C1CCCCCN1 [caprolactam] |  |  |  | carcinogen [5]: has not been found to be, and is not expected to be, either a reproductive toxin or a carcinogen; reproductive toxin [4]: has not been found to be, and is not expected to be, either a reproductive toxin or a carcinogen
CC1=CC(=O)CC(C)(C)C1 [isophorone] |  |  |  | carcinogen [5]: suspected carcinogen
CN1CCCC1=O [Solvent 4] | 50% | 50% | 50% | 
CCCCCCCCCC(=O)N(C)C [Solvent 6] | 30% | 30% | 30% | 
COC(=O)CCCCC(=O)N(C)C [Solvent 7, N,N-dimethyladipamide methyl ester] |  |  |  | Hansen Solubility Parameters: Dispersion [6]: 17.2; Hansen Solubility Parameters: Hydrogen Bonding [6]: 9.3; Hansen Solubility Parameters: Polarity [6]: 9.7
CN1CCCCCC1=O [Solvent 1, N-methylcaprolactam] |  |  |  | carcinogen [5]: not considered to be either a reproductive toxin or a carcinogen; reproductive toxin [4]: not considered to be either a reproductive toxin or a carcinogen
